# Experimental data: ChEMBL document CHEMBL1201862, “PubChem BioAssay data set” (2004)
#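 Step 1: Grow cells in 96-well plates. Step 2: Expose to compound for 48 hours at 5 concentrations. Step 3: Interpolate endpoints linearly; if unreached, use highest concentration. GI50 is the concentration that inhibits growth by half.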 Active and inactive are the calls of the source. Cut-off read from the data, not from the text of the source: active = GI50 up to about 1.1 µM and inactive = higher.
# How the values were obtained:
# Test in all cases: DTP human tumour cell line panel, 48 h
# SR = system: SR
# RPMI-8226 = system: RPMI-8226
# ACHN = system: ACHN
# A498 = system: A498
# 786-0 = system: 786-0
# IGROV-1 = system: IGROV-1
# NCI-H23 = system: NCI-H23
# UACC-62 = system: UACC-62
# EKVX = system: EKVX
# MOLT-4 = system: MOLT-4
# NCI/ADR-RES = system: NCI/ADR-RES
# UO-31 = system: UO-31
# UACC-257 = system: UACC-257
# SF-295 = system: SF-295
# M14 = system: M14
# SF-268 = system: SF-268
# SN12C = system: SN12C
# SW-620 = system: SW-620
# SK-OV-3 = system: SK-OV-3
# SNB-75 = system: SNB-75
# SF-539 = system: SF-539
# DU-145 = system: DU-145
# SK-MEL-2 = system: SK-MEL-2
# MDA-MB-231 = system: MDA-MB-231
# SNB-19 = system: SNB-19
# HCT-116 = system: HCT-116
# LOX IMVI = system: LOX IMVI
# OVCAR-8 = system: OVCAR-8
# U-251 = system: U-251
# Malme-3M = system: Malme-3M
# COLO 205 = system: COLO 205
# MDA-N = system: MDA-N
# MCF7 = system: MCF7
# MDA-MB-435 = system: MDA-MB-435
# HCT-15 = system: HCT-15
# NCI-H226 = system: NCI-H226
# CCRF-CEM = system: CCRF-CEM
# SK-MEL-5 = system: SK-MEL-5
# OVCAR-4 = system: OVCAR-4
# TK-10 = system: TK-10
# KM12 = system: KM12
# K562 = system: K562
# A549 = system: A549
# PC-3 = system: PC-3
# SK-MEL-28 = system: SK-MEL-28
# HOP-62 = system: HOP-62
# HT-29 = system: HT-29
# OVCAR-5 = system: OVCAR-5
# Hs-578T = system: Hs-578T
# OVCAR-3 = system: OVCAR-3
smiles,measurement,setting,value
COc1cc(OC)c2c(C)cc(=O)oc2c1,GI50,SR,45.1 µM (inactive)
same,GI50,RPMI-8226,44.6 µM (inactive)
same,GI50,ACHN,36.7 µM (inactive)
same,GI50,A498,20.6 µM (inactive)
same,GI50,786-0,52.6 µM (inactive)
same,GI50,IGROV-1,35.2 µM (inactive)
same,GI50,NCI-H23,64.4 µM (inactive)
same,GI50,UACC-62,96.4 µM (inactive)
same,GI50,EKVX,50.5 µM (inactive)
same,GI50,MOLT-4,82.6 µM (inactive)
same,GI50,NCI/ADR-RES,63.8 µM (inactive)
same,GI50,UO-31,20.3 µM (inactive)
same,GI50,UACC-257,93.8 µM (inactive)
same,GI50,SF-295,75.9 µM (inactive)
same,GI50,M14,> 100 µM (inactive)
same,GI50,SF-268,47.9 µM (inactive)
same,GI50,SN12C,72.6 µM (inactive)
same,GI50,SW-620,54.5 µM (inactive)
same,GI50,SK-OV-3,> 100 µM (inactive)
same,GI50,SNB-75,25.9 µM (inactive)
same,GI50,SF-539,34.8 µM (inactive)
same,GI50,DU-145,52.7 µM (inactive)
same,GI50,SK-MEL-2,> 100 µM (inactive)
same,GI50,MDA-MB-231,70.3 µM (inactive)
same,GI50,SNB-19,> 100 µM (inactive)
same,GI50,HCT-116,43.1 µM (inactive)
same,GI50,LOX IMVI,47.1 µM (inactive)
same,GI50,OVCAR-8,55.7 µM (inactive)
same,GI50,U-251,84.7 µM (inactive)
same,GI50,Malme-3M,53 µM (inactive)
same,GI50,COLO 205,54.1 µM (inactive)
same,GI50,MDA-N,> 100 µM (inactive)
same,GI50,MCF7,85.9 µM (inactive)
same,GI50,MDA-MB-435,88.9 µM (inactive)
same,GI50,HCT-15,56.5 µM
same,GI50,NCI-H226,41.5 µM (inactive)
same,GI50,CCRF-CEM,> 100 µM (inactive)
same,GI50,SK-MEL-5,> 100 µM (inactive)
same,GI50,OVCAR-4,> 100 µM (inactive)
same,GI50,TK-10,66.4 µM (inactive)
same,GI50,KM12,54.2 µM (inactive)
same,GI50,K562,45 µM (inactive)
same,GI50,A549,55.7 µM (inactive)
same,GI50,PC-3,> 100 µM (inactive)
same,GI50,SK-MEL-28,> 100 µM (inactive)
same,GI50,HOP-62,> 100 µM (inactive)
same,GI50,HT-29,43.4 µM (inactive)
same,GI50,OVCAR-5,> 100 µM (inactive)
same,GI50,Hs-578T,61.1 µM (inactive)
same,GI50,OVCAR-3,> 100 µM (inactive)
